Experimental findings from patent US20250320224A1 (DOMAIN THERAPEUTICS, priority 2022, published 2025) are described below.

Where a name gives a salt, the structure may show the parent alone.

The assay concerns the target T1, human PAR-2 (hPAR-2) receptor (Homo sapiens, UniProt P55085).
T1 construct: expressed in HEK-293 cells in an endogenous manner; endogenous in cells; host or cells: HEK-293
T1 sequence (P55085 26-397): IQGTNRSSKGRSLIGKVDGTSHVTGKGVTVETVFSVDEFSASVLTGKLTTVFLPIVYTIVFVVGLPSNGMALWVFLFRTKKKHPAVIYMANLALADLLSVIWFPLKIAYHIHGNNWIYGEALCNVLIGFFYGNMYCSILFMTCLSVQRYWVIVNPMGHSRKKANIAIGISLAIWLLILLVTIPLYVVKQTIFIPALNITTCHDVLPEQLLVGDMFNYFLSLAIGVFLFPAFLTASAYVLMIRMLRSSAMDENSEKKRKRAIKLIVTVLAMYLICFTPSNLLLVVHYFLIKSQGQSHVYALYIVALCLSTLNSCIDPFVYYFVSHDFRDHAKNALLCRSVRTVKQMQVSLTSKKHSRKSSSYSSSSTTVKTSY
In words: In vitro human PAR-2 functional antagonist activity using calcium assays. To be noted: hPAR-2 endogenously expressed in HEK-293 cells; stimulated by 2-Furoyl-LIGRLO-NH2 peptide; Fluo4AM intracellular calcium, FLIPR Tetra. It counts as cell-based. The procedure, abridged: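 Antagonism was measured as reduced calcium response to 2-Furoyl-LIGRLO-NH2 (dosed at its 80%-of-maximum concentration), recorded for 5 min. This followed a 10 min compound pre-incubation on Fluo4AM-loaded HEK-293 cells expressing native hPAR-2. Signals were normalised to buffer and agonist-alone controls.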
A general note: A change in cytosolic calcium serves as a functional read-out for many receptors and channels.
For the molecule `CN1CCN(C(=O)c2csc(N3CCN(C(=O)c4ccc5c(n4)C(C)(C)CN5c4ccc(Cl)c(F)c4)C(C)(C)C3)n2)CC1` [Example 101, (1-(4-chloro-3-fluorophenyl)-3,3-dimethyl-2,3-dihydro-1H-pyrrolo[3,2-b]pyridin-5-yl)(2,2-dimethyl-4-(4-(4-methylpiperazine-1-carbonyl)thiazol-2-yl)piperazin-1-yl)methanone hydrochloride], the IC50 is < 500 nM.
On to `CC1(C)CN(c2ccc(Cl)c(F)c2)c2ccc(C(=O)N3CC[C@@H](c4ccccn4)[C@H](C(=O)O)C3)nc21` (relative stereo) [Example 138, (trans)-1-(1-(4-chloro-3-fluorophenyl)-3,3-dimethyl-2,3-dihydro-1H-pyrrolo[3,2-b]pyridine-5-carbonyl)-4-(pyridin-2-yl)piperidine-3-carboxylic acid], for which the IC50 was 500 to 10000 nM.
In the case of `CC1(C)C(=O)NCCN1C(=O)c1ccc2c(n1)C1(CCOC1)CN2c1ccc(Cl)c(F)c1` (stereo not shown) [Example 58, 4-(1′-(4-chloro-3-fluorophenyl)-1′,2′,4,5-tetrahydro-2H-spiro[furan-3,3′-pyrrolo[3,2-b]pyridine]-5′-carbonyl)-3,3-dimethylpiperazin-2-one], the 50% inhibitory concentration (IC50) is < 500 nM.
For `Cc1cc(N2CCN(C(=O)c3ccc4c(n3)C(C)(C)CN4c3ccc4c(c3)COC4)C(C)(C)C2)nc(C)c1C(=O)O` [Example 209, 6-(4-(1-(1,3-dihydroisobenzofuran-5-yl)-3,3-dimethyl-2,3-dihydro-1H-pyrrolo[3,2-b]pyridine-5-carbonyl)-3,3-dimethylpiperazin-1-yl)-2,4-dimethylnicotinic acid] the value was < 500 nM; for `CC1(C)C(=O)NCCN1C(=O)c1ccc2c(n1)[C@]1(C)CCO[C@@H]1N2c1ccc(Cl)c(F)c1` (single isomer, unassigned) [Example 63], 500 to 10000 nM.
The value for `CC1(C)CN(c2ccc(Cl)c(F)c2)c2ccc(C(=O)N3CCNC(=O)C3(C)C)nc21` [Example 18, 4-(1-(4-chloro-3-fluorophenyl)-3,3-dimethyl-2,3-dihydro-1H-pyrrolo[3,2-b]pyridine-5-carbonyl)-3,3-dimethylpiperazin-2-one] was < 500 nM; that for `CC1(C)C(=O)NCCN1C(=O)c1ccc2c(n1)C1(CCOCC1)CN2c1ccc(Cl)c(F)c1` [Example 55, 4-(1′-(4-chloro-3-fluorophenyl)-1′,2,2′,3,5,6-hexahydrospiro[pyran-4,3′-pyrrolo[3,2-b]pyridine]-5′-carbonyl)-3,3-dimethylpiperazin-2-one] was < 500 nM; that for `Cc1cc(N2CCN(C(=O)c3ccc4c(n3)C3(C=C(F)C3)CN4c3ccc(Cl)c(F)c3)C(C)(C)C2)nc(C)c1C(=O)O` (stereo not shown) [Example 90, 6-(4-(1′-(4-chloro-3-fluorophenyl)-3-fluoro-1′,2′-dihydrospiro[cyclobutane-1,3′-pyrrolo[3,2-b]pyridin]-2-en-5′-carbonyl)-3,3-dimethylpiperazin-1-yl)-2,4-dimethylnicotinic acid] was < 500 nM.
For `Cc1cc(N2CCN(C(=O)c3ccc4c(n3)OC(C)(C)CN(c3ccc(Cl)c(F)c3)C4)C(C)(C)C2)nc(C)c1C(=O)O` [Example 87, 6-(4-(4-(4-chloro-3-fluorophenyl)-2,2-dimethyl-2,3,4,5-tetrahydropyrido[3,2-f][1,4]oxazepine-8-carbonyl)-3,3-dimethylpiperazin-1-yl)-2,4-dimethylnicotinic acid] the value was > 10000 nM; for `Cc1nc(N2CCN(C(=O)c3ccc4c(n3)C(C)(C)CN4c3ccc(Cl)c(F)c3)C(C)(C)C2)sc1C(=O)O` [Example 69, 2-(4-(1-(4-chloro-3-fluorophenyl)-3,3-dimethyl-2,3-dihydro-1H-pyrrolo[3,2-b]pyridine-5-carbonyl)-3,3-dimethylpiperazin-1-yl)-4-methylthiazole-5-carboxylic acid], < 500 nM; for `CC1(C)CN(c2ccc(Cl)c(F)c2)c2ncc(C(=O)N3CCN(c4ccc(CC(=O)O)cn4)CC3(C)C)nc2O1` [Example 268, 2-(6-(4-(4-(4-chloro-3-fluorophenyl)-2,2-dimethyl-3,4-dihydro-2H-pyrazino[2,3-b][1,4]oxazine-7-carbonyl)-3,3-dimethylpiperazin-1-yl)266yridine-3-yl)acetic acid], > 10000 nM.
Consider `CC1(C)CN(c2ccc(F)c(F)c2)c2ncc(C(=O)N3CCN(c4ccc(CC(=O)O)cn4)CC3(C)C)nc21` [Example 171, 2-(6-(4-(5-(3,4-difluorophenyl)-7,7-dimethyl-6,7-dihydro-5H-pyrrolo[2,3-b]pyrazine-2-carbonyl)-3,3-dimethylpiperazin-1-yl)pyridin-3-yl)acetic acid], for which the IC50 is < 500 nM.
For `CC1(C)CN(c2ccc(F)c(F)c2)c2ccc(C(=O)N3CCNC(=O)C3(C)C)nc21` [Example 12, 4-(1-(3,4-difluorophenyl)-3,3-dimethyl-2,3-dihydro-1H-pyrrolo[3,2-b]pyridine-5-carbonyl)-3,3-dimethylpiperazin-2-one] the value was < 500 nM; for `CC1(C)CN(c2ccc(Cl)c(F)c2)c2ccc(C(=O)N3CCN(C(=O)CCCC(=O)O)CC3(C)C)nc21` [Example 28, 5-(4-(1-(4-chloro-3-fluorophenyl)-3,3-dimethyl-2,3-dihydro-1H-pyrrolo[3,2-b]pyridine-5-carbonyl)-3,3-dimethylpiperazin-1-yl)-5-oxopentanoic acid], 500 to 10000 nM.
Consider `CCC1(C)CN(c2ccc(Cl)c(F)c2)c2ccc(C(=O)NC3(C(N)=O)CC3)nc21` (stereo not shown) [Example 54, N-(1-carbamoylcyclopropyl)-1-(4-chloro-3-fluorophenyl)-3-ethyl-3-methyl-2,3-dihydro-1H-pyrrolo[3,2-b]pyridine-5-carboxamide], for which the IC50 fell in the range of 500 to 10000 nM.
For the molecule `CC1(C)CN(CCc2ccc(F)cc2)c2ncc(C(=O)N3CCN(c4ccc(CC(=O)O)cn4)CC3(C)C)nc21` [Example 211, 2-(6-(4-(5-(4-fluorophenethyl)-7,7-dimethyl-6,7-dihydro-5H-pyrrolo[2,3-b]pyrazine-2-carbonyl)-3,3-dimethylpiperazin-1-yl)pyridin-3-yl)acetic acid], the IC50 was in the range of 500 to 10000 nM.

The IC50 is the concentration that gives 50% inhibition.
